Laboratory results published in paper PMC10544575, “Inhibitory mechanism of vortioxetine on CYP450 enzymes in human and rat liver microsomes” (Frontiers in Pharmacology, 2023).
pIC50: −log10 of the molar value. “Also recorded” adds a separate entry of the source. Where two headings read alike, the source gives them in different places.

Columns and labels:
CYP2D = experiment: IC50 of vortioxetine on CYP2D (dextromethorphan) in RLMs; type: in vitro ADME; conditions: rat, rat liver microsomes, probe dextromethorphan
Procedure: (§1) The components of the incubation system were as follows: 0.20 mg/mL HLMs or 0.20 mg/mL RLMs, 0.1 M Tris-HCl, vortioxetine, and the probe substrates of each enzyme. In the study of Km’s (Michaelis–Menten constant) experiment, midazolam (1, 2, 5, 10, 20, 50 and 100 μM in HLMs and RLMs) corresponded to CYP3A4/3A; bupropion (10, 20, 50, 100, 200, 500, 1,000 and 2000 μM in HLMs; 1, 2, 5, 10, 20, 50, 100 and 200 μM in RLMs) corresponded to CYP2B6/2B; amodiaquine (5, 10, 20, 50, 100 and 200 μM in HLMs; 10, 20, 50, 100, 200, 500 μM in RLMs) corresponded to CYP2C8/CYP2C-1; losartan (1, 2, 5, 10, 20, 50, 100, 200 μM in HLMs; 10, 20, 50, 100, 200, 500 and 1,000 μM in RLMs) corresponded to CYP2C9/CYP2C-2; mephenytoin (20, 50, 100, 200, 500 and 1,000 μM in HLMs; 5, 10, 20, 50, 100, 200, 500 and 1,000 μM in RLMs) corresponded to CYP2C19/CYP2C-3; and dextromethorphan (1, 2, 5, 10, 20, 50 and 100 μM in HLMs and RLMs) corresponded to CYP2D6/CYP2D. […]
(§2) All experiments results were detected by UPLC-MS/MS, which equipped with a Waters Acquity UPLC system (Milford, MA, United States) and a Waters Xevo TQ-S triple quadrupole tandem mass spectrometer with an electrospray ionization source (Milford, MA, United States). […]
(§3) IC50 values and enzyme kinetic parameters were calculated by Graphpad Prism 6.0 (GraphPad software Inc., CA, United States). […] Data for each experiment were expressed as mean ± SD (n = 3).

CYP3A = experiment: Reversible inhibition kinetics (Lineweaver-Burk), CYP3A in RLMs; type: in vitro ADME, rat
Procedure: as §1, §2, §3

CYP2B6 = target: T1, CYP2B6 (Homo sapiens, UniProt P20813); experiment: IC50 of vortioxetine on CYP2B6 (bupropion) in HLMs; type: in vitro ADME; design: 0.20 mg/mL HLMs; from tissue; host or cells: human liver microsomes
T1 sequence (P20813 1-491): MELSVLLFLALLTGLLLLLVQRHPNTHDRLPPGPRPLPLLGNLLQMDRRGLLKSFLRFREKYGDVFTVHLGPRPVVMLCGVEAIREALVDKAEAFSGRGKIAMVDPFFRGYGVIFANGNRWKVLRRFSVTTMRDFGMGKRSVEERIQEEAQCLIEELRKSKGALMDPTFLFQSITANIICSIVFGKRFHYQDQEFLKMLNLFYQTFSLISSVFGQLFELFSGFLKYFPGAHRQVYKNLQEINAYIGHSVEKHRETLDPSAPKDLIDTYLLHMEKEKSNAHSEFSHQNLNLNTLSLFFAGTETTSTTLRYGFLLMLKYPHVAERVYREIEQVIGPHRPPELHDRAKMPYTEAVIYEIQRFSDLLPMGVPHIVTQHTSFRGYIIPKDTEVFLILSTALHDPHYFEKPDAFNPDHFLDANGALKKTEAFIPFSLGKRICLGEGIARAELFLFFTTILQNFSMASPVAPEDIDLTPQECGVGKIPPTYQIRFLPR
Procedure: as §1, §2, §3

CYP450 = experiment: Overall assessment of time-dependent inhibition (IC50-shift) on CYP450 in HLMs and RLMs; type: in vitro ADME, human and rat
Procedure: IC50-shift was used to investigate whether the drug produced time-dependent inhibition (TDI) of the enzyme. […] The above mixture was then incubated for another 30 min. During the experiment, the individual substrates midazolam (4 μM), bupropion (40 μM), amodiaquine (3 μM), losartan (8 μM), mephenytoin (90 μM), and dextromethorphan (10 μM) were determined with vortioxetine IC50-shift in HLMs. […] Other experimental conditions were the same as above.

`Cc1ccc(Sc2ccccc2N2CCNCC2)c(C)c1` [vortioxetine] was tested, and the IC50 at 30 min (CYP2D; RLMs 0.20 mg/mL, dextromethorphan at Km, 37°C, 30 min, read-out: IC50) was 15.7 µM, the IC50 at 30 min (CYP2D; inhibitory effect (strength judged by IC50), RLMs) was > 10 µM and the Inhibition type (CYP3A; midazolam, Lineweaver-Burk plot) was “uncompetitive inhibition”. It also gave a Ki at 30 min (CYP3A; rat, rat liver microsomes, probe midazolam) of 4.41 µM, a pIC50 (CYP2B6; HLMs 0.20 mg/mL, bupropion at Km, 37°C, 30 min, read-out: IC50) of 5.05 and a pIC50 (CYP2B6; inhibitory effect (strength judged by IC50), HLMs) of 5.00 to 6.00. The “reversibility of inhibition of CYP450 enzymes” value (CYP450; all CYP450 enzymes studied) was “reversible inhibition” and the “time-dependent inhibition (TDI)” value (CYP450; six CYP450 isoforms in HLMs and RLMs, judged by IC50-shift (>10 = TDI)) was “no time-dependent inhibition (TDI); also recorded: no TDI effect”.
